Assay results reported in US12331042B2, “Compounds suitable for the treatment and prophylaxis of muscle wasting and other conditions” (priority 2019, dated 2025).
“Also recorded” adds a separate entry of the source.

Experiments:
[1] = system: monocrotaline (MCT)-treated C57BL/6 mice; assay: Pulmonary hypertension mouse model, test series 2; assay type: in vivo; settings: MCT+compound (0.1 weight-% in chow) vs MCT, 8 weeks
Description: The test series 2 were performed analogous to test series 1. Briefly, Three groups of mice were included in this study: 1) saline-treated mice (sham; n=10); 2) monocrotaline (MCT)-treated mice fed with normal chow (MCT; n=10); and 3) MCT-treated mice fed with MuRF1 inhibitor chow (MCT+compound; n=10 for each compound). 8 weeks old C57BL/6 mice were subcutaneously injected weekly with either MCT (600 mg/kg) or a matched volume of saline for 8 weeks. The MCT+compound group started receiving the inhibitor chow 1 week prior to the MCT injections, whereas the sham and MCT groups were fed an identical chow but without the addition of the selected compound. The compound concentration in the chow was 0.1 weight-%, resulting in a daily compound intake per mouse of about 3 mg. Body weight was recorded every week for each mouse. Mice were sacrificed after 8 weeks treatment. At sacrifice, examination and tissue analysis were performed as described in test series 1.

[2] = system: ICR-DIO male mice; assay: Glucose and insulin regulation in DIO mice (fasting glucose, OGTT, ITT); assay type: in vivo
Source text: Analogously to example 2.7, diabetes was induced by a high-fructose high-fat diet (HFD) for 4 months in DIO mice. The mice developed increased fasting glucose and insulin resistance. Control group animals received a normal rodent diet (regular diet). Weight loss was then induced during a 30 days test period. In a first stage, the animals were fed normal rodent diet for 16 days. Then in a second stage the animals received a low-calory diet for 14 days. Two days after start of the first stage, the diet was supplemented with MyoMed-203 (at 1 g compound/1 kg food).
Test design: ICR-DIO male mice were randomly assigned to groups of 8-10 animals each. Three control groups were included: Control group of mice without obesity (control; regular diet (RD); n=10), obese mice fed with high-fructose high-fat diet during the entire study period (DIO HFD; n=8); and obese mice with initiated weight loss (DIO control; n=8).
Determining the level of blood glucose was performed after 6-hour fasting. An On Call Plus glucometer (Acon Laboratories, Inc., USA) and specific test strips (REF G133-111) were used for determination of glucose levels. Blood was obtained from the tail vein by incision of the tail tip. 5-6 μl of blood were used for each assay.
For oral glucose tolerance test (OGTT), mice were orally treated with glucose at dose of 2 g/kg at the dose volume of 10 ml/kg after a 6-hour fasting. Glucose measurements were performed immediately before treatment and at 15, 30, 60 and 120 min after glucose administration. The AUC describing the rate of blood glucose output in each mouse during the test was calculated using the formula: […]
For insulin tolerance test (ITT), mice were injected intraperitoneally with recombinant human insulin solution (Lilly, France; REF C620001K) at the dose of 0.75 or 0.60 IU/[…] of body weight in the volume of 5 ml/kg after 6-hour fasting. Glucose measurements were performed immediately before treatment and at 15, 30, 60 and 120 min after insulin administration. The results of the rate of blood glucose output were expressed as area under the curve (AUC).

[3] = target: MuRF1 E3 ligase activity (Homo sapiens, UniProt Q969Q1); assay: Inhibition of MuRF1 E3 ligase activity (ubiquitination, Western blot); assay type: biochemical; settings: 20-100 μmol/L compound, 1 h at 37° C., based on ubiquitination patterns
Sequence of MuRF1 E3 ligase activity (Q969Q1 whole entry): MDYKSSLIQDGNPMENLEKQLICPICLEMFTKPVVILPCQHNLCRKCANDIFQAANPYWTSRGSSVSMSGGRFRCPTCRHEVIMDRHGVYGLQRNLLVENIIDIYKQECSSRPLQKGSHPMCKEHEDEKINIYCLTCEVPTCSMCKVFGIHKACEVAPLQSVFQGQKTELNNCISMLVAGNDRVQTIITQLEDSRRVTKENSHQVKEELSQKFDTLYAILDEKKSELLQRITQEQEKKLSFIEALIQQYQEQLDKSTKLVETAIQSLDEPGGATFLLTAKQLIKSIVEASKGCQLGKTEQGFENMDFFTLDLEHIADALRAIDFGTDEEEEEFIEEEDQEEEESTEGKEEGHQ
Description: Compounds were then assessed for effects on MuRF1 E3 ligase activity directed to titin or to MuRF1 itself (self-ubiquitination) by mixing 75 nmol/L UBE1 (Boston Biochem), 1 μmol/L UbcH5c (Boston Biochem), 100 μmol/L Ubiquitin, 4 mmol/L ATP, 100 nmol/L Titin A168-170 with 20-100 μmol/L of respective compounds. Reactions were started by addition of 220 nmol/L MuRF1, followed by 1 h at 37° C., SDS PAGE and Western blot analysis with MuRF1 and titin specific antibodies. All reactions also included 5% DMSO.

## Cc1cc(=O)oc2cc(OCc3ccc(C(=O)OCC(=O)NC(=O)NCc4ccccn4)cc3)ccc12 [MyoMed-203, [2-oxo-2-(2-pyridylmethylcarbamoylamino)ethyl] 4-[(4-methyl-2-oxo-chromen-7-yl)oxymethyl]benzoate]
[1]
  loss of skeletal muscle mass (EDL, TA wet weight; diaphragm maximum force): most pronounced effect
  right ventricle hypertrophy: attenuated; also recorded: attenuate the development of right ventricle hypertrophy
[2]; 1 g compound/1 kg food, vs DIO control, throughout the treatment period
  blood glucose level after 6-hour fasting: significantly lower
[2]; after 14 days of weight loss and treatment
  hypoglycemic effect according to OGTT: mild hypoglycemic effect
[2]; day 14, vs DIO control
  blood glucose at 30 minutes of OGTT: tended to be lower
[2]; day 28
  OGTT calculated area under the glucose elimination curve: tended to be lower
[2]; day 28, vs all control groups
  glucose level at 120 min of OGTT: significant decrease in the glucose level
[2]; vs all control groups
  glucose level at 120 minutes after insulin injection (ITT): significant decrease of glucose level

## Cc1cc(=O)oc2cc(OCc3ccc(C(=O)OC(C)C(=O)NC(N)=O)cc3)ccc12 (stereo not shown) [MyoMed-946-5, (1-methyl-2-oxo-2-ureido-ethyl) 4-[(4-methyl-2-oxo-chromen-7-yl)oxymethyl]benzoate]
[3]
  inhibition of MuRF1 E3 ligase activity: significantly inhibit MuRF1 E3 ligase activity

## CNC(=O)NC(=O)C(C)OC(=O)c1ccc(COc2ccc3c(C)cc(=O)oc3c2)cc1 (stereo not shown) [MyoMed-946-8, [1-methyl-2-(methylcarbamoylamino)-2-oxo-ethyl] 4-[(4-methyl-2-oxo-chromen-7-yl)oxymethyl]benzoate]
[3]
  inhibition of MuRF1 E3 ligase activity: significantly inhibit MuRF1 E3 ligase activity
